The values that follow are results of earlier work, collected in patent US10092188B2, “Methods and compositions for identifying subjects at risk of developing stent thrombosis” (VisEn Medical, Inc., priority 2008, dated 2018).

On to CY™ 5.5, for which, where the note is “absorbance maximum of commercially available fluorochrome”, the Absorbance max is given as 675 nm. Where the note is “extinction coefficient of commercially available fluorochrome”, the εmax is on record as 250,000 M^−1cm^−1.
